# Assays:
# Assay in all cases: MIC, antibacterial and synergistic activity
# Assay type in all cases: cell-based
# E. coli ATCC 25922 = E. coli ATCC 25922 (Wt)
# A. baumanii JMI 2659 = A. baumanii JMI 2659 (Ges-14 (Cpase))
# E.coli JMI 4103 = E.coli JMI 4103 (KPC-2, Tem-1, CMY-Type)
# E. coli JMI 10768 [1] = conditions: E. coli JMI 10768 (CTX-M15 (Weak ESBL))
# Protocol: In the Tables 10 - 12, compounds herein disclosed were tested in combination with various antibiotics against metallo β-lactamase producing bacteria. Table 3: Synergy of the inhibitor Ex. 1 (4 µg/mL) in combination with antibiotics
# K. pneumo JMI 2673 = K. pneumo JMI 2673 (CTX-M14 (ESBL))
# Outline: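 Compounds were evaluated together with various antibiotics to measure synergistic antibacterial activity. For each combination, the minimum inhibitory concentration of the antibiotic was recorded while the inhibitor was present at a constant 4 µg/mL.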
# K. pneumo JMI 2699 = K. pneumo JMI 2699 (VIM-1, CTX-M3)
# Outline: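 Read-out is the MIC of each antibiotic with 4 µg/mL inhibitor present, in metallo β-lactamase-producing strains.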
# P. aerug JMI 2686 [2] = conditions: P. aerug JMI 2686 (KPC-2 (Cpase))
# Outline: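 This antibacterial synergy assay measured the minimum inhibitory concentration of antibiotics combined with the disclosed inhibitor compounds. The inhibitor was held at 4 µg/mL throughout. The aim was to see whether the added compound strengthened the antibiotic's action against the tested bacteria.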
# K. pneumo JMI 4106 = K. pneumo JMI 4106 (KPC-3, TEM-1, SHV-12, SHV-141)
# E. coli JMI 2692 = E. coli JMI 2692 (NDM-1, TEM-1, CTX-M-15)
# Protocol: (§1) In the Tables 10 - 12, compounds herein disclosed were tested in combination with various antibiotics against metallo β-lactamase producing bacteria.
# K. pneumo JMI 2693 = K. pneumo JMI 2693 (NDM-1 (Cpase))
# Protocol: as §1
# K. pneumo JMI 2697 = K. pneumo JMI 2697 (IMP-4 (Cpase))
# Protocol: as §1
# K. pneumo JMI 2681 = K. pneumo JMI 2681 (Oxa-48 (Cpase))
# P. aerug JMI 149 = P. aerug JMI 149 (Bla+++D+)
# E. cloacae JMI 36 = E. cloacae JMI 36 (P99)
# K.pneumo JMI 4109 = K.pneumo JMI 4109 (SHV-1, SHV-12); substance alone
# K. pneumo JMI 2674 = K. pneumo JMI 2674 (CTX-M15 (ESBL)); substance alone
# K. pneumo JMI 4088 = K. pneumo JMI 4088 (KPC-3 (Cpase)); substance alone
# P. aerug JMI 2686 [3] = conditions: P. aerug JMI 2686 (KPC-2 (Cpase)); substance alone
# E. coli JMI 10767 = E. coli JMI 10767 (Wt)
# E. coli JMI 10768 [4] = conditions: E. coli JMI 10768 (CTX-M15 (Weak ESBL)); Meropenem + inhibitor at 4 µg/mL
# E. coli JMI 10770 = conditions: Escherichia coli, JMI10770; E. coli JMI 10770 (CTX-M15 (Hyper ESBL)); substance alone
# E. coli JMI 11103 = system: E. coli JMI 11103
# [5] = Aztreonam + inhibitor at 4 µg/mL
# [6] = Ceftazidime + inhibitor at 4 µg/mL
# [7] = Meropenem + inhibitor at 4 µg/mL
structure (smiles),measurement,setting,value
"O=C(NO[C@H]1CCCNC1)[C@@H]1CC[C@@H]2CN1C(=O)N2OS(=O)(=O)O [Ex. 2, (2S,5R)-7-Oxo-N-[(3S)-piperidin-3-yloxy] -6-(sulfooxy)-1,6-diazabicyclo[3.2.1]octane-2-carboxamide]",MIC Aztreonam + inhibitor,E. coli ATCC 25922; [5],≤.062 µg/mL
same,MIC Ceftazidime + inhibitor,E. coli ATCC 25922; [6],≤0.25 µg/mL
same,MIC Meropenem + inhibitor,E. coli ATCC 25922; [7],≤.031 µg/mL
same,MIC,"E. coli ATCC 25922; Escherichia coli, ATCC25922, substance alone",1 µg/mL
same,MIC Aztreonam + inhibitor,A. baumanii JMI 2659; [5],>4 µg/mL
same,MIC Ceftazidime + inhibitor,A. baumanii JMI 2659; [6],>16 µg/mL
same,MIC Meropenem + inhibitor,A. baumanii JMI 2659; [7],>2 µg/mL
same,MIC,"A. baumanii JMI 2659; Acinetobacter baumannii, JMI2659, substance alone, read-out: MIC",> 16 µg/mL
same,MIC Aztreonam + inhibitor,E.coli JMI 4103; [5],>4 µg/mL
same,MIC Ceftazidime + inhibitor,E.coli JMI 4103; [6],8 µg/mL
same,MIC Meropenem + inhibitor,E.coli JMI 4103; [7],≤.031 µg/mL
same,MIC,"E.coli JMI 4103; Escherichia coli, JMI4103, substance alone",8 µg/mL
same,MIC Aztreonam + inhibitor,E. coli JMI 10768 [1]; [5],≤.062 µg/mL
same,MIC Ceftazidime + inhibitor,E. coli JMI 10768 [1]; [6],≤0.25 µg/mL
same,MIC,"E. coli JMI 10768 [1]; Escherichia coli, JMI10768, substance alone",4 µg/mL
same,MIC Aztreonam + inhibitor,K. pneumo JMI 2673; [5],≤.062 µg/mL
same,MIC Ceftazidime + inhibitor,K. pneumo JMI 2673; [6],≤0.25 µg/mL
same,MIC Meropenem + inhibitor,K. pneumo JMI 2673; [7],≤.031 µg/mL
same,MIC Aztreonam + inhibitor,K. pneumo JMI 2699; [5],≤.062 µg/mL
same,MIC Ceftazidime + inhibitor,K. pneumo JMI 2699; [6],≤0.25 µg/mL
same,MIC Meropenem + inhibitor,K. pneumo JMI 2699; [7],0.062 µg/mL
same,MIC,"K. pneumo JMI 2699; substance alone, read-out: MIC",4 µg/mL
same,MIC Aztreonam + inhibitor,P. aerug JMI 2686 [2]; [5],>4 µg/mL
same,MIC Ceftazidime + inhibitor,P. aerug JMI 2686 [2]; [6],16 µg/mL
same,MIC Meropenem + inhibitor,P. aerug JMI 2686 [2]; [7],>2 µg/mL
same,MIC Aztreonam + inhibitor,K. pneumo JMI 4106; [5],≤.062 µg/mL
same,MIC Ceftazidime + inhibitor,K. pneumo JMI 4106; [6],≤0.25 µg/mL
same,MIC Meropenem + inhibitor,K. pneumo JMI 4106; [7],≤.031 µg/mL
same,MIC,"K. pneumo JMI 4106; substance alone, read-out: MIC",> 16 µg/mL
same,MIC Aztreonam + inhibitor,E. coli JMI 2692; [5],≤.062 µg/mL
same,MIC Ceftazidime + inhibitor,E. coli JMI 2692; [6],≤0.25 µg/mL
same,MIC Meropenem + inhibitor,E. coli JMI 2692; [7],≤.031 µg/mL
same,MIC,"E. coli JMI 2692; Escherichia coli, JMI2692, substance alone, read-out: MIC",≤ 0.5 µg/mL
same,MIC Aztreonam + inhibitor,K. pneumo JMI 2693; [5],≤.062 µg/mL
same,MIC Ceftazidime + inhibitor,K. pneumo JMI 2693; [6],≤0.25 µg/mL
same,MIC Meropenem + inhibitor,K. pneumo JMI 2693; [7],≤.031 µg/mL
same,MIC,K. pneumo JMI 2693; substance alone,4 µg/mL
same,MIC Aztreonam + inhibitor,K. pneumo JMI 2697; [5],≤.062 µg/mL
same,MIC Ceftazidime + inhibitor,K. pneumo JMI 2697; [6],0.5 µg/mL
same,MIC Meropenem + inhibitor,K. pneumo JMI 2697; [7],≤.031 µg/mL
same,MIC,K. pneumo JMI 2697; substance alone,4 µg/mL
same,MIC Aztreonam + inhibitor,K. pneumo JMI 2681; [5],2 µg/mL
same,MIC Ceftazidime + inhibitor,K. pneumo JMI 2681; [6],1 µg/mL
same,MIC Meropenem + inhibitor,K. pneumo JMI 2681; [7],>2 µg/mL
same,MIC,"K. pneumo JMI 2681; substance alone, read-out: MIC",> 16 µg/mL
same,MIC Aztreonam + inhibitor,P. aerug JMI 149; [5],>4 µg/mL
same,MIC Ceftazidime + inhibitor,P. aerug JMI 149; [6],4 µg/mL
same,MIC Meropenem + inhibitor,P. aerug JMI 149; [7],0.5 µg/mL
same,MIC,"P. aerug JMI 149; substance alone, read-out: MIC",> 16 µg/mL
same,MIC Aztreonam + inhibitor,E. cloacae JMI 36; [5],0.125 µg/mL
same,MIC Ceftazidime + inhibitor,E. cloacae JMI 36; [6],≤0.25 µg/mL
same,MIC Meropenem + inhibitor,E. cloacae JMI 36; [7],0.125 µg/mL
same,MIC,"E. cloacae JMI 36; Enterobacter cloacae, JMI36, substance alone, read-out: MIC",> 16 µg/mL
same,MIC,K.pneumo JMI 4109,16 µg/mL
same,MIC,K. pneumo JMI 2674,> 16 µg/mL
same,MIC,K. pneumo JMI 4088,1 µg/mL
same,MIC,P. aerug JMI 2686 [3],> 16 µg/mL
same,MIC Meropenem + inhibitor,E. coli JMI 10767; [7],≤.031 µg/mL
same,MIC,"E. coli JMI 10767; Escherichia coli, JMI10767, substance alone",4 µg/mL
same,MIC Meropenem + inhibitor,E. coli JMI 10768 [4],≤.031 µg/mL
same,MIC,E. coli JMI 10770,4 µg/mL
same,MIC Aztreonam + inhibitor,"E. coli JMI 11103; E. coli JMI 11103 (CTX-M15 (Intermediate ESBL)), Aztreonam + inhibitor at 4 µg/mL",≤.062 µg/mL
same,MIC Ceftazidime + inhibitor,"E. coli JMI 11103; E. coli JMI 11103 (CTX-M15 (Intermediate ESBL)), Ceftazidime + inhibitor at 4 µg/mL",≤0.25 µg/mL
same,MIC Meropenem + inhibitor,"E. coli JMI 11103; E. coli JMI 11103 (CTX-M15 (Intermediate ESBL)), Meropenem + inhibitor at 4 µg/mL",≤.031 µg/mL
same,MIC,"E. coli JMI 11103; Escherichia coli, JMI11103, E. coli JMI 11103 (CTX-M15 (Intermediate ESBL)), substance alone",4 µg/mL
